Consider 16 compounds from ChEMBL document CHEMBL5532678, “Comprehensive Insights that Targeting PIM for Cancer Therapy: Prospects and Obstacles” (J Med Chem, 2024).

Test [1] addresses T1, Serine/threonine-protein kinase pim-2 (Homo sapiens, UniProt Q9P1W9). The experiment in a line: Binding affinity to PIM2 (unknown origin) assessed as inhibition constant.
In test [2] the target is T2, Serine/threonine-protein kinase pim-1 (Homo sapiens, UniProt P11309). The test is described as follows: Binding affinity to PIM1 (unknown origin) assessed as inhibition constant.
Test [3] deals with T2, Serine/threonine-protein kinase pim-1. The experiment in a line: Inhibition of human PIM1 using KKRNRTLTK as substrate in presence of [gamma-33P]-ATP by hotspot kinase assay.
In a further test the test system is HepG2. The test is described as follows: Antiproliferative activity against human HepG2 cells assessed as inhibition of cell growth incubated for 72 hrs by MTT assay. It counts as functional, cell-based. The settings on record: HepG2, 72 h. For orientation: Formazan colour is commonly taken as a measure of viable cells.
The next test has as its system PC-3. The experiment in a line: Anticancer activity against human PC-3 cells assessed as inhibition of cell growth incubated for 24 hrs by MTT assay. Type of test: functional, cell-based. The settings on record: PC-3, 24 h.
For test [4], the system named is MCF7. The experiment in a line: Antiproliferative activity against human MCF7 cells assessed as reduction in cell growth incubated for 48 hrs by MTT assay. Type of test: functional, cell-based. As to conditions: MCF7, 48 h.
For test [5], the target named is T2, Serine/threonine-protein kinase pim-1. The experiment in a line: Inhibition of human PIM1 by discoverX kinome scan assay.
Test [6] shares this target. The test is described as follows: Inhibition of human full length-His6 tagged PIM1 (1 to 312 residues) expressed in Escherichia coli BL21 (DE3) using RSRHSSYPAGT as peptide substrate incubated for 10 mins in presence of [gamma-32P]ATP by radiometric scintillation assay.
Test [7] concerns the target T3, Serine/threonine-protein kinase pim-3 (Homo sapiens, UniProt Q86V86). The test is described as follows: Inhibition of N-terminal GST-tagged full length human PIM3 (1 to 326 residues) expressed in baculovirus expression system using S6K2 peptide as substrate at 1 uM in presence of ATP by Mobility shift assay.
In test [8] the target is T1, Serine/threonine-protein kinase pim-2. The test is described as follows: Inhibition of human full length-His6 tagged PIM2 (1 to 311 residues) expressed in Escherichia coli BL21 (DE3) assessed as inhibition constant using RSRHSSYPAGT as peptide substrate incubated for 10 mins in presence of [gamma-32P]ATP by radiometric scintillation assay.
Test [9] relates to HCT-116. The test is described as follows: Antiproliferative activity against human HCT-116 cells assessed as inhibition of cell growth incubated for 24 hrs by MTT assay. It counts as functional, cell-based. The settings on record: HCT-116, 24 h.
Test [10] addresses T2, Serine/threonine-protein kinase pim-1.
For test [11], the target named is T1, Serine/threonine-protein kinase pim-2.
Test [12] concerns the target T3, Serine/threonine-protein kinase pim-3.
For test [13], the target named is T2, Serine/threonine-protein kinase pim-1. The test is described as follows: Inhibition of human recombinant PIM1.
Test [14] deals with T4, Prostaglandin G/H synthase 2 (Homo sapiens, UniProt P35354).
T4 sequence (P35354 whole entry): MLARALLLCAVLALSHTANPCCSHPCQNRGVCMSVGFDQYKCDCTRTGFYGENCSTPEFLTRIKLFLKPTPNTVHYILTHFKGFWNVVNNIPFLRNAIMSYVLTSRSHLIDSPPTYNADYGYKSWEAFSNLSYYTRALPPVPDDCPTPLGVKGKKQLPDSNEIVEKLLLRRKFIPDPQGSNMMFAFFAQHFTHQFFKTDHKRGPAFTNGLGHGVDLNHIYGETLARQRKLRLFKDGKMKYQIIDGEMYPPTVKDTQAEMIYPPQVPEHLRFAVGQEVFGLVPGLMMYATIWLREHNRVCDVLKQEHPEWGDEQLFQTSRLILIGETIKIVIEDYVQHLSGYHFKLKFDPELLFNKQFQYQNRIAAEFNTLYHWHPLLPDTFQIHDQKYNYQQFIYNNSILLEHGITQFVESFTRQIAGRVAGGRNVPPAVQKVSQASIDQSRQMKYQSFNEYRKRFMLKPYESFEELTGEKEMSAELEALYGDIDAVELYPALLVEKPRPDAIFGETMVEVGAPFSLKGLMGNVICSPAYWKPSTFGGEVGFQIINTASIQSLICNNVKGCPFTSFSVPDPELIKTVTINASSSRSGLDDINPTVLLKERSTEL
The test is described as follows: Inhibition of COX2 (unknown origin) fluorescence based analysis.

Test [15] has as its target T1, Serine/threonine-protein kinase pim-2. The experiment in a line: Inhibition of N-terminal GST-tagged full length human PIM2 (1 to 311 residues) expressed in baculovirus expression system using S6K2 peptide as substrate at 1 uM in presence of ATP by Mobility shift assay.
Test [16] concerns the target Prostaglandin G/H synthase 1 (Homo sapiens, UniProt P23219). The experiment in a line: Inhibition of COX1 (unknown origin) fluorescence based analysis.
Test [17] concerns the target T5, Polyunsaturated fatty acid 5-lipoxygenase (Homo sapiens, UniProt P09917).
T5 sequence (P09917 whole entry): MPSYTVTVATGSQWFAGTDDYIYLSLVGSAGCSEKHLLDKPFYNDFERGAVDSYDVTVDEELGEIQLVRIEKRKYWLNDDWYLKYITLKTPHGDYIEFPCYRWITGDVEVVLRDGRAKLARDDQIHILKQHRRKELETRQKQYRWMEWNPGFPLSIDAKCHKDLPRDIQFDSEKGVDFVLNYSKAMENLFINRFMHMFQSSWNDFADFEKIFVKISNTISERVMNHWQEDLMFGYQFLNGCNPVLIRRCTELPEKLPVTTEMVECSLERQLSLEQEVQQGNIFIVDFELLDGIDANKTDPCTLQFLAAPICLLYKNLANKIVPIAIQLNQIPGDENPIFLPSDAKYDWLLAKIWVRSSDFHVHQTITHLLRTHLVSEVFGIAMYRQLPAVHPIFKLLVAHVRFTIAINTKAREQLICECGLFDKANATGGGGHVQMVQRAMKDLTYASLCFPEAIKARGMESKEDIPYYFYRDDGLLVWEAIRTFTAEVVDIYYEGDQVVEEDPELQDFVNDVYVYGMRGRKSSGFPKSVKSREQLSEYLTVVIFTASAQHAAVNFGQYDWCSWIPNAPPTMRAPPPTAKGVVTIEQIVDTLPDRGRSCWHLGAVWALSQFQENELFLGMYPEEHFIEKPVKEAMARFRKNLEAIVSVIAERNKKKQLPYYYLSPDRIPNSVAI
The experiment in a line: Inhibition of 5-LOX in human PMNL cells. It counts as cell-based.

Test [18] relates to MCF7. The experiment in a line: Cytotoxicity against human MCF7 cells assessed as reduction in cell growth incubated for 72 hrs by MTT assay. It counts as functional, cell-based. As to conditions: MCF7, 72 h.
Test [19] concerns HCT-116. The test is described as follows: Cytotoxicity against human HCT-116 cells assessed as reduction in cell viability incubated for 72 hrs by MTT assay. Type of test: functional, cell-based. The settings on record: HCT-116, 72 h.
The target of test [20] is T3, Serine/threonine-protein kinase pim-3. The experiment in a line: Inhibition of PIM3 (unknown origin) by FRET based Z-LYTE kinase assay.
Test [21] addresses T1, Serine/threonine-protein kinase pim-2. The experiment in a line: Inhibition of PIM2 (unknown origin) by FRET based Z-LYTE kinase assay.

For orientation: Ki means a dissociation constant, usually derived from enzyme kinetics or from competition with a known ligand. As to `CC(C)(C)Nc1nnc(-c2ccc3[nH]cc(-c4nccc(C5CC5)n4)c3c2)o1`, the results for the Ki in [1] and in [2] were 0.28 nM and 0.55 nM, respectively.
By IC50 is commonly meant the concentration that gives 50% inhibition. Take `N#Cc1c(-c2ccccc2)cc(-c2ccccc2)nc1OCCCC(=O)NO`: in test [3], the IC50 is 344 nM.
Same read-out and setting: next, `Fc1cncc(-c2ccc3[nH]c4ncnc(N[C@H]5CC[C@H](N6CCOCC6)CC5)c4c3c2)c1`: 4.6 nM.
In the case of `N#Cc1c(-c2ccccc2O)cc(-c2ccc(N3C(=O)c4ccccc4C3=O)cc2)nc1N`, the IC50 was found to be 14600 nM with HepG2, 27600 nM with PC-3, 13400 nM in the test with MCF7 [4] and 9760 nM in [5].
For `COc1ccc(/C=C/C(=O)CC2(O)C(=O)Nc3cc(Br)ccc32)cc1` (centres undefined), the figures for the IC50 in test [6], in [7] and in test [8] were 1620 nM, 1740 nM and 2460 nM, respectively.
`Cc1nc2sc3c(c2c(C)c1Br)NC(c1ccc(O)c(O)c1)NC3=O` (centres undefined): the values for the IC50 with HCT-116 [9] and in the test with MCF7 [4] were 370 nM and 220 nM, respectively.
Consider `CC(C)(O)[C@H]1CC[C@H](Nc2ccc3ncc(-c4cccc(C(F)(F)F)c4)n3n2)CC1` [NUVISERTIB], for which the 50% inhibitory concentration (IC50) was 5 nM in test [10], 239 nM in test [11] and 42 nM in [12].
Taken in the same sequence, the figures for `C[C@@H]1CCCN(c2c(/C=C3\SC(=O)NC3=O)cccc2-c2ccccc2)C1` were 3 nM, 5 nM and 3 nM.
As for `COc1ccc(/C=C/C(=O)/C=C2/C(=O)Nc3cc(Br)ccc32)cc1`, the IC50 stood at 370 nM in [6], 300 nM in test [7] and 410 nM in test [8].
On to `N#Cc1c(-c2ccccc2)cc(-c2ccccc2)nc1OCCCCC(=O)NO`, for which, in test [3], the IC50 is 365 nM.
With `Cc1ccc(C(C)C)c(O)c1/C=N/N=C1NC(=O)C(CC(=O)O)S1` (centres undefined), the IC50 in [13] was determined as 2960 nM; in test [14] it was 91 nM; in [15] it was 1380 nM; in test [16], 9400 nM; in [17], 3540 nM.
With `Cc1nc2sc3c(c2c(C)c1Br)NC(c1ccccc1Cl)NC3=O` (centres undefined), the figures for the 50% inhibitory concentration (IC50) in the test on MCF7 [18] and with HCT-116 [19] were 23800 nM and 18600 nM, respectively.
In turn, `NCCN1CCN(CCN2c3ccncc3Oc3ccc(Br)cc32)CC1` yielded an IC50 in [10] of 0.9 nM.
As to `Cc1ccc(C(C)C)c(O)c1/C=N/N=C1/SC(CC(=O)O)C(=O)N1c1cccc2ccccc12` (centres undefined), the IC50 in test [13] came out at 4090 nM; in test [14] it was 9110 nM; in test [15], 1740 nM; in test [16], 200 nM; in test [17], 3160 nM.
As to `Cc1ccc(-c2cncc(NCCN(C)C)n2)cc1CC1SC(=O)NC1=O` (centres undefined), the IC50 in test [20] and in test [21] was 6 nM in each case.
As to `N#Cc1nnc2c3c(-c4ccccc4Cl)c(C#N)c(=O)[nH]c3nn2c1N`, the IC50 in test [5] amounted to 43000 nM.
